From the NIST ThermoML archive (doi:10.1021/je800876t)

Experiment: molar heat capacity at constant pressure
Conditions: 101.33 kPa, Crystal, Vacuum adiabatic calorimetry

O=C([O-])c1ccccc1.O=C([O-])c1ccccc1.[Ba+2] [barium benzoate]
Conditions | molar heat capacity at constant pressure [J/K/mol]
77.78 K | 109.64
79.5 K | 111.79
82.08 K | 114.77
84.57 K | 117.57
86.98 K | 119.65
89.39 K | 121.92
91.65 K | 124.31
93.86 K | 126.6
96.1 K | 128.79
98.25 K | 130.89
100.3 K | 132.67
102.4 K | 134.86
104.4 K | 137.21
106.5 K | 139.25
108.3 K | 141.18
110.3 K | 142.99
112.2 K | 144.86
114.1 K | 146.37
115.9 K | 148.24
117.8 K | 150.2
119.6 K | 152.24
122.4 K | 154.37
125.9 K | 157.49
128.8 K | 160.12
131.6 K | 162.83
134.5 K | 165.78
137.4 K | 168.03
140.3 K | 170.89
143.1 K | 173.54
146.1 K | 176.75
148.9 K | 178.82
152.8 K | 182.27
154.7 K | 184.19
157.6 K | 186.99
160.4 K | 189.18
163.4 K | 191.95
166.3 K | 194.11
169.1 K | 197.21
172 K | 199.98
174.9 K | 202.6
177.8 K | 204.53
180.6 K | 207.13
184.7 K | 211.18
188.6 K | 214.68
191.5 K | 216.93
194.4 K | 219.24
197.2 K | 221.9
200.2 K | 224.02
203.1 K | 226.01
206 K | 228.46
208.9 K | 231.14
211.8 K | 233.77
214.6 K | 235.99
217.5 K | 238.64
220.5 K | 240.68
223.4 K | 243.49
226.3 K | 245.79
229.1 K | 248.3
232 K | 250.4
235 K | 253.03
238 K | 255.71
242.6 K | 259.3
245.5 K | 262.07
248.3 K | 264.47
251.2 K | 266.71
254.2 K | 269.22
257 K | 270.83
259.8 K | 272.78
262.7 K | 276.16
265.6 K | 277.74
268.6 K | 279.79
271.6 K | 282.06
274.5 K | 284.16
277.5 K | 286.12
280.4 K | 288.42
283.3 K | 290.79
286.3 K | 292.92
289.2 K | 295.05
292 K | 297.35
294.9 K | 299.58
297.9 K | 301.75
300.8 K | 303.71
303.6 K | 305.99
306.5 K | 308.5
309.3 K | 310.54
312.2 K | 312.73
315.2 K | 314.63
318.2 K | 316.73
321.2 K | 318.3
324.1 K | 320.78
327 K | 322.91
330 K | 325.19
332.9 K | 327.09
335.9 K | 329.01
338.7 K | 330.94
341.6 K | 333.36
344.6 K | 335.34
347.5 K | 337.3
350.3 K | 339.28
353.2 K | 340.83
356.2 K | 342.81
359 K | 344.74
361.9 K | 346.43
364.8 K | 348.25
367.6 K | 350.41
370.5 K | 352.35
373.5 K | 354.08
376.4 K | 355.62
379.4 K | 358.05
382.4 K | 359.77
385.3 K | 361.34
388.3 K | 363.44
390.7 K | 364.99
393 K | 366.42
395.9 K | 368.64
398.9 K | 370.39
401.9 K | 371.91
